Test results published in patent publication US9682066B2 (University of Cincinnati, priority 2012, dated 2017).

Tests used:
[1] = system: MDA-MB-231; test: Cytotoxicity of letrozole (MTT assay); format: cell-based; conditions: Homo sapiens
[2] = system: MCF-7; test: Cytotoxicity of letrozole (MTT assay); format: cell-based; conditions: Homo sapiens, MCF7
[3] = in vivo; conditions: female, Sprague-Dawley, rat, iv
Method: (§1) Experiments were carried out in female Sprague-Dawley rats weighing 200-250 g. […] Blood samples from jugular vein cannulation and dialysate samples from microdialysis probe implanted stereotactically into the striatum region of the brain were obtained every 30 minutes over 8 hours and analyzed by HPLC (fluorescence detection, Excitation λ, 230 nm; Emission λ, 295 nm). Microdialysate samples were corrected for in vivo relative recovery (9.5%), measured under similar experimental conditions.
(§2) In order to obtain the correct ECF concentrations from those obtained by bioanalysis of dialysate samples, the correction factor known as “% recovery” is employed. The % recovery for a compound can be obtained by in vivo or in vitro recovery analysis. […] In vitro relative recovery was calculated as follows: % recoveryin vitro=[C(dialysate)/C(reservoir)]×100
(§3) At the end of microdialysis, brain tissues were collected after transcardial perfusion for histological evaluation to confirm formation of tumor in the right striatum and immunohistochemistry to differentiate the expression of aromatase in tumoral and normal brain regions. The pharmacokinetic parameters (including time required to achieve maximum drug levels (Tmax), area under the concentrations-time curve (AUC) over a defined time interval, and peak or maximum concentrations (Cmax)) of both plasma and brain ECF were estimated by non-compartmental analysis using WinNonlin 6.2 (Pharsight Inc.).
(§4) The brain ECF concentrations were time-averaged over the collection interval and corrected for in vivo recovery. […] Results are presented as mean±SD. (N=9 for 4 and 8 mg/kg, N=6 for 6 and 12 mg/kg). […] Simultaneous plasma and ECF pharmacokinetic determination facilitated estimation of the relative brain distribution coefficient, calculated as (AUCbrain ecf/AUCplasma, ub).

[4] = biological target: T1, aromatase activity in rat glioma cell line C6 (Rattus norvegicus, UniProt P22443); test: Aromatase activity (estradiol EIA assay); format: cell-based; conditions: testosterone 0.1 μM, 2 days incubation
T1 construct: endogenous in cells; host or cells: C6 rat glioma cell line
T1 sequence (P22443 1-508): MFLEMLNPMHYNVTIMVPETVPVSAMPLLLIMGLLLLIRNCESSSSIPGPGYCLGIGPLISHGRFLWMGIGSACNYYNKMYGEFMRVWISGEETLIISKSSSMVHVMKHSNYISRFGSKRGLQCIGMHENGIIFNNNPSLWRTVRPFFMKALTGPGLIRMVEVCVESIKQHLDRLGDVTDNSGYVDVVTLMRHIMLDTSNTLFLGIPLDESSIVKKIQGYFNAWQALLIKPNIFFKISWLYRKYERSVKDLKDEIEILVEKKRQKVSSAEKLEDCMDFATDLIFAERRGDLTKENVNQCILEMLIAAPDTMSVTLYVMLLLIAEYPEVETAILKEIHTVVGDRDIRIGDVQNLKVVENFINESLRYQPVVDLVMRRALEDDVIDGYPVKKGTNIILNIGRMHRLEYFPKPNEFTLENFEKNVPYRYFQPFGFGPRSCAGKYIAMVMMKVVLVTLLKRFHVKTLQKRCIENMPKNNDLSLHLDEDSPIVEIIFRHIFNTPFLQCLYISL

[5] = system: U373MG; test: Cytotoxicity of letrozole (MTT assay); format: cell-based; conditions: Homo sapiens, U373 MG
[6] = system: C6 glioma; test: In vivo anti-tumor efficacy of oral dosed letrozole; design: species or system rat; conditions: 4 mg/kg/day oral gavage stopped after 15 days; scan on Day 45
Excerpt: Rats received tumor implantation as described in Example 6. […] Animals were scanned 5, 10, and 15 days after treatment period to observe change in tumor volume. After 15 days, treatment was stopped. Animals were scanned again on Day 45 (30 days post cessation of treatment).

[7] = system: C6 glioma; conditions: 4 mg/kg/day i.v.
Excerpt: 10 days after tumor implantation, anesthetized rats were scanned on μPET scanner (Siemens Inveon) to obtain active tumor volume at Day 0.
Animals were scanned again 8-10 days post treatment to assess change in tumor volume.

[8] = system: rat glioma cell line C6; test: Cytotoxicity of letrozole (MTT assay); format: cell-based
[9] = Normal brain ECF (microdialysis) versus plasma pharmacokinetics, IV bolus; conditions: for Cmax, Brain: brain ECF; for Cmax, Brain / AUC0-8 hr, Plasma ub (Unbound) / Cmax, Plasma ub (Unbound): mean±SD;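 for all read-outs here: parameters by non-compartmental analysis, mean±SD, brain ECF sampled by microdialysis in freely moving rats and corrected for in vivo recovery, Kp as brain ECF AUC over unbound plasma AUC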
Method: as §1, §2, §3, §4

[10] = Tumoral versus normal brain ECF pharmacokinetics in C6 glioma-bearing rats; format: in vivo; conditions: female, Sprague-Dawley, rat, mean±SD; for AUC(0-t): 8 mg/kg IV bolus
[11] = Plasma protein binding with non-specific binding correction; format: in vitro ADME; conditions: NSB correction, concentration range 0.1-10 μM
Excerpt: Results are presented as mean±SD.

[12] = system: aromatase; test: Aromatase expression in rat glioma tissue (IHC); format: in vivo; conditions: treatment group versus control group (high expression)
Method: Expression of aromatase in tumors from rats of both control and treatment groups was evaluated using immunohistochemical (IHC analysis). Rat ovary (FIG. 12(A)) was used as a positive control for aromatase expression.

[13] = system: T98G; test: Cytotoxicity of letrozole (MTT assay); format: cell-based; conditions: Homo sapiens
[14] = Tumoral versus normal brain ECF pharmacokinetics in C6 glioma-bearing rats; format: in vivo, female Sprague-Dawley rats
Method: Histology of rat brains was performed as outlined in Apparaju et al., Pharmacokinetics of gemcitabine in tumor and non-tumor extracellular fluid of brain: an in vivo assessment in rats employing intracerebral microdialysis, Cancer Chemother. Pharmacol. 61: 223-29 (2008).

[15] = Brain pharmacokinetics after oral administration; format: in vivo; conditions: rat, 4 mg/kg oral gavage, brain ECF
Excerpt: A slight delay in Tmax was observed, consistent with the delay of appearance of the drug in systemic circulation.

[16] = system: brain metastases from breast cancer; conditions: cited from earlier work
[17] = female, Sprague-Dawley, rat, tumor-free brain ECF (left striatum, control), 8 mg/kg IV bolus, tumor-free brain ECF, mean±SD

N#Cc1ccc(C(c2ccc(C#N)cc2)n2cncn2)cc1 [letrozole, 4,4′-((1H-1,2,4-triazol-1-yl)methylene)dibenzonitrile]
IC50 [1]: > 100 µM | IC50 [2]: < 0.1 µM | Kp ([3]; brain ECF (striatum microdialysate) versus unbound plasma, 4 mg/kg): 0.51 | Kp ([3]; brain ECF / unbound plasma, 4 mg/kg): 0.32 | Kp ([3]; brain ECF / unbound plasma, 6 mg/kg): 0.98 | Kp ([3]; brain ECF / unbound plasma, 8 mg/kg): 0.77 | Kp ([3]; brain ECF / unbound plasma, 12 mg/kg): 0.8 | AUC(0-t) ([3]; brain ECF, 4 mg/kg): 0.583 ± 0.189 µg·h/mL | Cmax ([3]; brain ECF, 4 mg/kg): 0.132 ± 0.079 µg/mL | Tmax ([3]; brain ECF, 4 mg/kg): 1.4 ± 0.6 h | AUC(0-t) ([3]; brain ECF, 6 mg/kg): 2.01 ± 0.137 µg·h/mL | AUC(0-t) ([3]; brain ECF, 8 mg/kg): 2.64 ± 0.286 µg·h/mL | Tmax ([3]; brain ECF, 8 mg/kg): 1.33 ± 0.5 h | AUC(0-t) ([3]; brain ECF, 12 mg/kg): 2.55 ± 0.173 µg·h/mL | Tmax ([3]; brain ECF, 12 mg/kg): 1.3 to 1.5 h | AUC(0-t) ([3]; plasma (total), 4 mg/kg): 4.78 ± 0.932 µg·h/mL | Cmax ([3]; plasma (total), 4 mg/kg): 0.682 ± 0.024 µg/mL | AUC(0-t) ([3]; plasma (total), 6 mg/kg): 5.98 ± 0.146 µg·h/mL | Cmax ([3]; plasma (total), 6 mg/kg): 0.916 ± 0.071 µg/mL | AUC(0-t) ([3]; plasma (total), 8 mg/kg): 8.83 ± 1.08 µg·h/mL | Cmax ([3]; plasma (total), 8 mg/kg): 1.28 ± 0.182 µg/mL | AUC(0-t) ([3]; plasma (total), 12 mg/kg): 8.06 ± 1.42 µg·h/mL | Cmax ([3]; plasma (total), 12 mg/kg): 2.07 ± 0.258 µg/mL | IC50 [4]: 0.1 µM | IC50 [5]: 4.39 µM | tumor course after cessation of treatment [6]: tumors recurred once treatment was stopped | clinical condition of treated rats ([7]; throughout the treatment period): no clinical symptoms | tumor volume, treatment rat 8, day 8 ([7]; Day 0 volume 90.9 mm^3): 5.8 mm^3 | tumor volume, treatment rat 4, Day 5 ([7]; Day 0 volume 100.5 mm^3): 70.5 mm^3 | tumor volume, treatment rat 4, Day 10 ([7]; Day 0 volume 100.5 mm^3): 18.7 mm^3 | IC50 [8]: 0.11 µM | Cmax, Brain ([9]; 4 mg/kg IV bolus): 0.132 ± 0.079 µg/mL | AUC0-8 hr, Plasma ub (Unbound) ([9]; 4 mg/kg IV bolus): 1.817 ± 0.354 µg·h/mL | Cmax, Plasma ub (Unbound) ([9]; 4 mg/kg IV bolus): 0.259 ± 0.009 µg/mL | AUC0-8 hr, Plasma ub (Unbound) ([9]; 6 mg/kg IV bolus): 2.272 ± 0.056 µg·h/mL | Cmax, Plasma ub (Unbound) ([9]; 6 mg/kg IV bolus): 0.348 ± 0.027 µg/mL | Cmax, Brain ([9]; 8 mg/kg IV bolus): 0.376 ± 0.061 µg/mL | AUC0-8 hr, Plasma ub (Unbound) ([9]; 8 mg/kg IV bolus): 3.355 ± 0.412 µg·h/mL | Cmax, Plasma ub (Unbound) ([9]; 8 mg/kg IV bolus): 0.485 ± 0.069 µg/mL | Cmax, Brain ([9]; 12 mg/kg IV bolus): 0.631 ± 0.022 µg/mL | AUC0-8 hr, Plasma ub (Unbound) ([9]; 12 mg/kg IV bolus): 3.062 ± 0.539 µg·h/mL | Cmax, Plasma ub (Unbound) ([9]; 12 mg/kg IV bolus): 0.787 ± 0.098 µg/mL | dose linearity of brain and plasma pharmacokinetics ([9]; IV bolus 4, 6, 8, 12 mg/kg, linear regression of Cmax and AUC0-8hr): linear up to 8 mg/kg and potentially non-linear thereafter | Cmax ([10]; tumor-free brain ECF (left striatum, control), 4 mg/kg IV bolus, tumor-free brain ECF): 0.183 ± 0.013 µg/mL | AUC(0-t) ([10]; tumor-free brain ECF (left striatum, control), tumor-free brain ECF, read-out: AUC0-8 hr, Control): 2.28 ± 0.428 µg·h/mL | AUC(0-t) ([10]; tumoral brain ECF (right striatum), tumoral brain ECF, read-out: AUC0-8 hr, Tumor): 4.7 ± 0.555 µg·h/mL | fraction unbound [11]: 0.38 | aromatase expression in tumor sections (IHC) [12]: relatively low aromatase expression | IC50 [13]: 2.81 µM | Cmax, Tumor ([14]; 4 mg/kg IV bolus, tumoral brain ECF, mean±SD): 0.354 ± 0.034 µg/mL | Cmax, Tumor ([14]; 8 mg/kg IV bolus, tumoral brain ECF, mean±SD): 1.022 ± 0.204 µg/mL | Tmax ([14]; female, Sprague-Dawley, rat, tumor-free brain ECF (left striatum, control), 4 mg/kg IV bolus, tumor-free brain ECF, mean±SD): 1.75 ± 0.5 h | AUC(0-t) ([14]; female, Sprague-Dawley, rat, tumor-free brain ECF (left striatum, control), 4 mg/kg IV bolus, tumor-free brain ECF, mean±SD, read-out: AUC0-8 hr, Control): 0.803 ± 0.216 µg·h/mL | Cmax [14, 17]: 0.475 ± 0.087 µg/mL | Tmax [14, 17]: 1.33 ± 0.3 h | AUC(0-t) ([14]; female, Sprague-Dawley, rat, tumoral brain ECF (right striatum), 4 mg/kg IV bolus, tumoral brain ECF, mean±SD, read-out: AUC0-8 hr, Tumor): 1.16 ± 0.167 µg·h/mL | penetration of BBB and BTB ([14]; rats, microdialysis): effectively crosses the BBB and BTB | Cmax [15]: 0.176 ± 0.023 µg/mL | Tmax [15]: 5.75 ± 1.8 h | AUC(0-t) ([15]; read-out: AUC0-8 hr): 0.976 ± 0.162 µg·h/mL | clinical response of brain metastases, case report (Madhup et al.) ([16]; person, 5-mg tablets once daily, repeat CECT in 2005): significant reduction in the brain metastases | clinical response of brain metastases, case report (Goyal et al.) ([16]; postmenopausal person, 2.5 mg daily, 20 months later): complete recovery of neurological functions
